Patent publication US20140148482A1, “METHOD FOR SCREENING ANTI-CANCER DRUGS AND METHOD OF CANCER TREATMENT” (National Taiwan University, priority 2012, published 2014)
Read-outs that look alike come from different tables or passages of the source.

Legend:
[1] = system: GADD45γ mRNA in Huh-7 cells; assay: GADD45γ mRNA induction in Huh-7 cells, quantitative RT-PCR; type: cell-based, human; details: for screening criterion: increased expression of GADD45 family: 300% or above of GADD45γ expression, 800% or above of GADD45β expression, or both, Table 1; for GADD45γ relative gene expression, Mean: Huh-7 cells, 10 μM, 24 hours, reference control group = 100%
Description: (§1) Huh-7 cells, were added with 10 μM of the candidate compound and co-cultured under the same conditions for 24 hours. Sorafenib (10 μM) is used as a positive control group, and Huh-7 cells without compound treatment is used as the reference control group. mRNA levels were assessed through quantitative RT-PCR.
(§2) RNA was extracted using a Trizol reagent (Invitrogen, San Diego, Calif.). cDNAs were synthesized from total RNA (1 μg) using a High Capacity cDNA Archive kit (Applied Biosystems, Foster City, Calif.) and quantified using the TaqMan-Universal or SYBR Green PCR Master Mix (Applied Biosystems, Foster City, Calif.) on an ABI PRISM 7900 Sequence Detection System (Applied Biosystems, Foster City, Calif.). The primers for the GADD45β, GADD45γ and c-jun genes were purchased from Applied Biosystems (ABI TaqMan assay ID: Hs00169587_ml, Hs00198672_ml and Hs00277190_s1). Primers for the hypoxanthine phosphoribosyltransferase (HPRT; sense 5′-[…]-3′ and antisense 5′-[…]-3′) gene were used as endogenous controls. Conditions for PCR were as follows: 50° C. for 2 minutes, 95° C. for 10 minutes, and then 40 cycles of 95° C. for 15 seconds (denaturation) and 60° C. for 1 minute (annealing/extension). The relative mRNA amount of the target/control genes was calculated using the ΔCt (threshold cycle) method: relative expression=2−ΔCt, where ΔCt=Ct (target gene)−Ct (control gene). The gene expression of the reference control group is as 100%.
(§3) SC-20 was then tested for GADD45β, GADD45γ and c-Jun mRNA in sorafenib-sensitive (Huh-7) and sorafenib-resistant (Huh-7R) cell lines. The cell culture and the steps of SC-20 treatment were as described above. The concentration of SC-20 and was 10 μm. Said mRNA was measured via qRT-PCR.
as §2, with “Hs00277190_sl).” for “Hs00277190_s1).”, “gene).” for “gene). The gene expression of the reference control group is as 100%.”

[2] = system: GADD45β mRNA in Huh-7 cells; assay: GADD45β mRNA induction in Huh-7 cells, quantitative RT-PCR; type: cell-based, human; details: 24 hours; for GADD45β relative gene expression, Mean: Huh-7 cells, 10 μM, reference control group = 100%; for GADD45β mRNA expression induction: Huh-7, 10 uM, FIG. 4B
Description: as §1, §2
The effects of GADD45β mRNA induction by different concentrations of the candidate compounds were tested.

[3] = system: c-jun mRNA in Huh-7 cells; assay: c-jun mRNA induction in Huh-7 cells, quantitative RT-PCR; type: cell-based, human; details: 10 μM, 24 hours, reference control group = 100%
Description: as §1, §2

[4] = system: HCC cells (Huh-7, Hep3B, Huh-7R); assay: MTT cell viability of HCC cells (FIG. 2A); type: cell-based, human; details: 72 hours, especially in sorafenib-resistant cell lines (Hep3B and Huh-7R)
Description: (§7) Cell viability was assessed using an MTT (3-(4,5-dimethylthiazol-2-yl)-2,5-diphenyltetrazolium bromide) assay
(§8) The HCC cell line, Hep3B, was obtained from the American Type Culture Collection (ATCC), and the Huh-7 cell line was from the Health Science Research Resources Bank. Cells were cultured in DMEM, containing 10% fetal bovine serum, penicillin (100 units/mL), streptomycin (100 μg/mL), L-glutamine (2 mmol/L), and sodium pyruvate (1 mmol/L) at 37° C. in a humidified incubator containing 5% CO2. A sorafenib-resistant cell line, Huh-7R, was generated through continuous treatment of Huh-7 cells with sorafenib up to 10 μmol/L.Human umbilical vein endothelial cells (HUVEC) were procured from ScienCell Research Laboratories, CA. HUVECs were maintained in endothelial cell culture medium (ScienCell) to selectively promote growth at 37° C. in a 5% CO2 incubator.
(§9) Then the cells were collected and measured via an MTT assay.

p-ERK in Hep3B cells = assay: phospho-ERK protein level by Western blotting, Hep3B; type: cell-based, human; details: 24 hours, FIG. 4A
Description: (§4) Total-ERK, and phospho-ERK protein levels in HCC cells after sorafenib, SC-3 or SC-20 treatment at 24 hours. Whole-cell lysates after drug treatment were examined using Western blotting. Whole cell lysates of HCC cells after drug treatment were prepared and quantified as previously described (Ou D L et al. Cancer Res. 2010; 70:9309-18). SDS-PAGE and Western blot analysis were performed to measure protein expression. Signals were visualized using a UVP Imaging System (UVP, Upland, Calif.), or with X-ray film.

Huh-7 xenograft = assay: Subcutaneous xenograft model of HCC, Huh-7; type: in vivo, mice; details: SC-20 20 mg/kg/d vs sorafenib 50 mg/kg/d
Description: (§5) The protocol for the in vivo studies was approved by the Institutional Animal Care and Use Committee of College of Medicine, National Taiwan University. All the animal studies were performed according to the criteria outlined in the Guide for the Care and Use of Laboratory Animals prepared by National Academy of Sciences and published by NIH. Male BALB/c athymic (nu+/nu+) mice were inoculated subcutaneously with Huh-7 cells or Huh-7R cells (˜1×10^6). When the tumor volume reached ˜100 mm3 [volume (mm3)=(width)2×length×0.5], the mice were randomized into six treatment groups (n≧6 in each group): (a) vehicle control, (b) SC-20: 5 mg/kg/d, (c) SC-20: 10 mg/kg/d, (d) SC-20: 20 mg/kg/d, (e) SC-20: 50 mg/kg/d and (f) sorafenib: 50 mg/kg/d. Drug treatment was given daily via gavage. Tumor volume and body weight were recorded every 7 days. Tumor images from mice are from sacrifices at 25 days of treatment.
(§6) An additional mice were used to establish xenografts to observe survival time. For these experiments, mice with subcutaneously tumors (100 mm^3) were treated as described above. Survival was monitored until the experiments were terminated due to heavy tumor burden over 2000 mm^3 (FIG. 6C). Tx start, treatment start time; Tx stop, treatment stop time.

p-ERK in Huh-7 cells = assay: phospho-ERK protein level by Western blotting, Huh-7; type: cell-based, human; details: Huh-7, 24 hours, FIG. 4A
Description: as §4

Huh-7 cells [5] = assay: MTT cell viability, Huh-7; type: cell-based, human; details: sorafenib-sensitive Huh-7, 72 hours, FIG. 5A
Description: as §7
The HCC cell line, Hep3B, was obtained from the American Type Culture Collection (ATCC), and the Huh-7 cell line was from the Health Science Research Resources Bank. Cells were cultured in DMEM, containing 10% fetal bovine serum, penicillin (100 units/mL), streptomycin (100 μg/mL), L-glutamine (2 mmol/L), and sodium pyruvate (1 mmol/L) at 37° C. in a humidified incubator containing 5% CO2.
Huh-7 and Hep3B cells were treated with sorafenib, SC-3 or SC-20 for 72 hours, and the cell viability was assessed using an MTT assay.

BNL-MEA allograft = assay: Orthotopic allograft model of HCC, BNL-MEA; type: in vivo, mice
Description: The protocol for the in vivo studies was approved by the Institutional Animal Care and Use Committee of College of Medicine, National Taiwan University. All the animal studies were performed according to the criteria outlined in the Guide for the Care and Use of Laboratory Animals prepared by National Academy of Sciences and published by NIH. BALB/c mice were anaesthetized with isoflurane, and a small transverse incision was made in the left abdomen. BNL-MEA cells (˜1.5×10^5) suspended in 20 μl PBS were slowly injected with a 30-gauge needle into the left liver lobe, which was exposed through the incision. After injection, the incision was closed by suture with absorbable material. Five days after the surgery, the mice were randomized to three treatment groups (n≧4 in each group): (a) vehicle control, (b) SC-20 20 mg/kg/d and (c) sorafenib 10 mg/kg/d. Drug treatment was given daily via gavage. Mice sacrificed after twenty-five treatments were used as end-points of the therapeutic effect. In FIG. 7C, the arrows indicated the tumors.

Huh-7 cells [6] = assay: Apoptosis induction (Sub-G1) by flow cytometry; type: cell-based, human; details: Huh-7, FIGS. 5B and 5C
Hep3B cells [7] = assay: MTT cell viability, Hep3B; details: for cell viability of Hep3B (percentage of surviving cells): 72 hours of drug treatment, FIG. 2A
Description: as §7
(§10) Cells were cultured in DMEM, containing 10% fetal bovine serum, penicillin (100 units/mL), streptomycin (100 μg/mL), L-glutamine (2 mmol/L), and sodium pyruvate (1 mmol/L) at 37° C. in a humidified incubator containing 5% CO2.
as §9

[8] = system: GADD45γ mRNA in Huh-7R cells; assay: GADD45γ mRNA induction in sorafenib-resistant Huh-7R cells, qRT-PCR; type: cell-based, human; details: 10 μm, cut-off more than 300%, FIG. 3B
Description: as §3
as §2, with “Hs00277190_sl).” for “Hs00277190_s1).”, “gene).” for “gene). The gene expression of the reference control group is as 100%.”

Huh-7R xenograft = assay: Subcutaneous xenograft model of HCC, Huh-7R; type: in vivo, mice; details: SC-20 20 mg/kg/d vs sorafenib 50 mg/kg/d
Description: as §5, §6

[9] = system: HUVEC (human umbilical venous endothelial cells); assay: MTT cell viability, HUVEC; type: cell-based; details: 72 hours, especially in 5 uM treatments, FIG. 2B
Description: as §7, §8, §9

Hep3B cells [10] = details: human, 72 h
Description: as §7, §10, §9

Row | Compound | screening criterion: increased expression of GADD45 family [1] | GADD45γ relative gene expression, Mean [1] [%] | GADD45β relative gene expression, Mean [2] [%] | c-Jun relative gene expression, Mean [3] [%] | growth inhibition of HCC cells compared with sorafenib [4] | GADD45β mRNA expression induction [2] | cell viability of Hep3B (percentage of surviving cells) (Hep3B cells [7]) [%] | also measured
1 | N#Cc1ccc(Oc2ccc(NC(=O)Nc3ccc(Cl)c(C(F)(F)F)c3)cc2)cc1 [SC-1] | satisfied the increased expression of GADD45 family | 402.46 | 1156.44 | 343.08 |  |  |  | 
2 | Cc1cc(Oc2ccnc3c([N+](=O)[O-])cccc23)ccc1NC(=O)c1cc(C(F)(F)F)cc(C(F)(F)F)c1 [SC-20] | satisfied the increased expression of GADD45 family | 364.16 | 1674.94 | 515.47 | even more potent than sorafenib | significantly induced | 36.78 | GADD45γ mRNA induction ([1]; sorafenib-sensitive Huh-7, 10 μm, cut-off more than 300%, FIG. 3A): can be induced; reduction of p-ERK (p-ERK in Hep3B cells): incapable of reducing p-ERK; mice survival time (Huh-7 xenograft; FIG. 6C): significantly prolong mice survival times more than highly dose of sorafenib; tumor growth inhibition (Huh-7 xenograft; daily gavage, FIG. 6A): significantly inhibited tumor growth more than highly dose of sorafenib; reduction of p-ERK (p-ERK in Huh-7 cells): incapable of reducing p-ERK; cell growth inhibition compared with sorafenib (Huh-7 cells [5]): more potency than sorafenib; tumor growth in terms of tumor volume and weight (BNL-MEA allograft; BNL-MEA allograft, SC-20 20 mg/kg/d, daily gavage, twenty-five treatments, FIGS. 7A and 7B): significantly inhibited tumor growth; tumor growth inhibition compared with sorafenib (BNL-MEA allograft; orthotopic model, SC-20 20 mg/kg/d vs sorafenib 10 mg/kg/d, FIG. 7C): inhibited tumor growth significantly more than sorafenib; apoptosis induction (Sub-G1) compared with sorafenib (Huh-7 cells [6]): more potency than sorafenib in inducing apoptosis; cell growth inhibition compared with sorafenib (Hep3B cells [7]; sorafenib-resistant Hep3B, 72 hours, FIG. 5A): more potency than sorafenib; GADD45γ mRNA induction [8]: can be induced; mice survival time (Huh-7R xenograft; FIG. 6C): significantly prolong mice survival times more than highly dose of sorafenib; tumor growth inhibition (Huh-7R xenograft; daily gavage, FIG. 6B): significantly inhibited tumor growth more than highly dose of sorafenib; growth inhibition of HUVECs compared with sorafenib [9]: even more potent than sorafenib
3 | Cc1cc(Oc2ccnc3c(N)cccc23)ccc1NC(=O)c1cc(C(F)(F)F)cc(C(F)(F)F)c1 [SC-21] |  | 96.65 | 94.65 | 77.51 |  |  |  | 
4 | CC(=O)Nc1cccc2c(Oc3ccc(NC(=O)c4cc(C(F)(F)F)cc(C(F)(F)F)c4)c(C)c3)ccnc12 [SC-22] |  | 229.94 | 340.21 | 183.54 |  |  |  | 
5 | N#Cc1ccc(Oc2ccc3cccc(NC(=O)Nc4ccc(Cl)c(C(F)(F)F)c4)c3c2)cc1 [SC-72] | satisfied the increased expression of GADD45 family | 1522.00 | 1951.02 | 552.00 | even more potent than sorafenib |  |  | cell viability of Hep3B (percentage of surviving cells) (Hep3B cells [10]): 15.65%
6 | CNC(=O)c1cc(Oc2ccc(NC(=O)Nc3ccc(Cl)c(C(F)(F)F)c3)cc2)ccn1 [sorafenib, Sorafenib, reference compound] |  | 1377.54 | 2226.40 | 447.28 |  | significantly induced | 68.57 | 
